Read-outs that look alike come from different tables or passages of the source.
Columns and labels:
Format in all cases: in vivo
corn (Zea mays) = test: Test A1 postemergence, corn; conditions: Postemergence
How it was run: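 Test compounds were formulated in a non-phytotoxic solvent mixture containing a surfactant. For preemergence, seeds sown in a loam soil–sand blend received a directed soil spray. For postemergence, potted plants in the same soil, 2 to 10 cm tall at the one- to two-leaf stage, were sprayed.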

rice (Oryza sativa) = test: Test B1 flooded paddy test, rice; conditions: 250 g ai/ha, Flood, applied to paddy water, 2-leaf stage, visually evaluated after 10 to 14 days
Text: A dash (-) response means no test result.

[1] = test system: blackgrass (Alopecurus myosuroides); test: Test A postemergence, blackgrass; conditions: Alopecurus myosuroides, post-emergence, 240 h, Postemergence, 0 to 100 scale (0 no effect, 100 complete control); for pest or weed control at 125 g/ha: 125 g ai/ha, read-out: Plant response rating, Blackgrass; for pest or weed control at 500 g/ha: 500 g ai/ha, visual injury vs untreated controls after approx. 10 days, read-out: Blackgrass plant response rating
How it was run: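 After sowing into a sand-amended loam, pots for the preemergence test were treated by spraying directly onto soil. In parallel, seedlings at the one- to two-leaf stage and 2 to 10 cm tall were treated postemergence with the identical surfactant-containing formulation.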

[2] = test system: wheat (Triticum aestivum); test: Test A postemergence, wheat; conditions: Triticum aestivum, post-emergence, 240 h, Postemergence, 0 to 100 scale (0 no effect, 100 complete control); for plant injury at 125 g/ha: 125 g ai/ha, read-out: Plant response rating, Wheat; for plant injury at 500 g/ha: 500 g ai/ha, visual injury vs untreated controls after approx. 10 days, read-out: Wheat plant response rating
How it was run: (§1)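 Test chemicals, formulated in a non-phytotoxic solvent mixture with surfactant, were sprayed postemergence on plants 2 to 10 cm tall at the one- to two-leaf stage. Preemergence treatment was a directed soil spray onto freshly seeded pots. Both used a loam soil and sand blend.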

[3] = test system: barnyardgrass (Echinochloa crus-galli); test: Test A postemergence, barnyardgrass; conditions: Echinochloa crus-galli, post-emergence, 240 h, Postemergence, 0 to 100 scale (0 no effect, 100 complete control); for pest or weed control at 125 g/ha: 125 g ai/ha, read-out: Plant response rating, Barnyardgrass; for pest or weed control at 500 g/ha: 500 g ai/ha, visual injury vs untreated controls after approx. 10 days, read-out: Barnyardgrass plant response rating
How it was run: as §1

[4] = 31 g ai/ha, 0 to 100 scale (0 no effect, 100 complete control), 10 days

Cc1c(C(=O)N(C)C)cc(NS(=O)(=O)C(F)(F)F)c(Cl)c1F [Compound 320]
Plant response rating, Corn (corn (Zea mays); [4]): 0
Plant response rating, Corn (corn (Zea mays); 125 g ai/ha, 0 to 100 scale): 0
Plant response rating, Rice (0 to 100 scale, 0 is no effect, 100 is complete control) (rice (Oryza sativa)): 0

Cc1c(C(=O)N2CCOCC2)cc(N(COC(=O)C(C)(C)C)S(=O)(=O)C(F)(F)F)c(C)c1C [Compound 324, [[(Trifluoromethyl)sulfonyl][2,3,4-trimethyl-5-(4-morpholinylcarbonyl)phenyl]amino]methyl 2,2-dimethylpropanoate]
Plant response rating, Corn (corn (Zea mays); [4]): 30
Plant response rating, Corn (corn (Zea mays); 125 g ai/ha, 0 to 100 scale): 30
Plant response rating, Rice (0 to 100 scale, 0 is no effect, 100 is complete control) (rice (Oryza sativa)): 0

Cc1cc(C)c(C2=NOC(OCC(C)C)C2)cc1NS(=O)(=O)C(F)(F)F (stereo not drawn) [Compound 322]
Plant response rating, Corn (corn (Zea mays); [4]): 0
Plant response rating, Corn (corn (Zea mays); 125 g ai/ha, 0 to 100 scale): 0
Plant response rating, Rice (0 to 100 scale, 0 is no effect, 100 is complete control) (rice (Oryza sativa)): 0

Cc1cc(C)c(N(COC(=O)C(C)(C)C)S(=O)(=O)C(F)(F)F)cc1C(=O)N1CCOCC1 [Compound 362]
Plant response rating, Corn (corn (Zea mays); [4]): 0
Plant response rating, Corn (corn (Zea mays); 125 g ai/ha, 0 to 100 scale): 40
Plant response rating, Rice (0 to 100 scale, 0 is no effect, 100 is complete control) (rice (Oryza sativa)): 10

CCc1cc(C)c(NS(=O)(=O)C(F)(F)F)cc1C1=NOC2CCCC12 (stereo not drawn) [Compound 305]
Plant response rating, Corn (corn (Zea mays); [4]): 0
Plant response rating, Corn (corn (Zea mays); 125 g ai/ha, 0 to 100 scale): 0
Plant response rating, Rice (0 to 100 scale, 0 is no effect, 100 is complete control) (rice (Oryza sativa)): 0

CCOC(=O)N(c1cc(C(=O)N2CCOCC2)c(C)cc1C)S(=O)(=O)C(F)(F)F [Compound 363]
Plant response rating, Corn (corn (Zea mays); [4]): 30
Plant response rating, Corn (corn (Zea mays); 125 g ai/ha, 0 to 100 scale): 60
Plant response rating, Rice (0 to 100 scale, 0 is no effect, 100 is complete control) (rice (Oryza sativa)): 25

Cc1cc(C)c(C2=NOC3(C)CCCC23)cc1NS(=O)(=O)C(F)(F)F (stereo not drawn) [Compound 340]
Plant response rating, Corn (corn (Zea mays); [4]): 20
Plant response rating, Corn (corn (Zea mays); 125 g ai/ha, 0 to 100 scale): 50
Plant response rating, Rice (0 to 100 scale, 0 is no effect, 100 is complete control) (rice (Oryza sativa)): 10

Cc1cc(C)c(N(S(=O)(=O)C(F)(F)F)S(=O)(=O)C(F)(F)F)cc1C1=NOC2COCC12 (stereo not drawn) [Compound 296]
Plant response rating, Corn (corn (Zea mays); [4]): 0
Plant response rating, Corn (corn (Zea mays); 125 g ai/ha, 0 to 100 scale): 0
Plant response rating, Rice (0 to 100 scale, 0 is no effect, 100 is complete control) (rice (Oryza sativa)): 0

CCC1CC(c2cc(NS(=O)(=O)C(F)(F)F)c(C)cc2C)=NO1 (stereo not drawn) [Compound 375]
Plant response rating, Corn (corn (Zea mays); [4]): 0
Plant response rating, Corn (corn (Zea mays); 125 g ai/ha, 0 to 100 scale): 0
Plant response rating, Rice (0 to 100 scale, 0 is no effect, 100 is complete control) (rice (Oryza sativa)): 15

Cc1cc(Br)c(NS(=O)(=O)C(F)(F)F)cc1C1=NOC2(CCCC2)C1 [Compound 309]
Plant response rating, Corn (corn (Zea mays); [4]): 0
Plant response rating, Corn (corn (Zea mays); 125 g ai/ha, 0 to 100 scale): 30
Plant response rating, Rice (0 to 100 scale, 0 is no effect, 100 is complete control) (rice (Oryza sativa)): 0

COC1CCCN(C(=O)c2cc(NS(=O)(=O)C(F)(F)F)c(Cl)c(F)c2C)C1 (stereo not drawn) [Compound 334]
Plant response rating, Corn (corn (Zea mays); [4]): 0
Plant response rating, Corn (corn (Zea mays); 125 g ai/ha, 0 to 100 scale): 0
Plant response rating, Rice (0 to 100 scale, 0 is no effect, 100 is complete control) (rice (Oryza sativa)): 10

Cc1cc(C)c(C2=NOC3COCCC23)cc1NS(=O)(=O)C(F)(F)F (stereo not drawn) [Compound 121, N-[2,4-Dimethyl-5-(3a,4,7,7a-tetrahydro-5H-pyrano[4,3-d]isoxazol-3-yl)phenyl]-1,1,1-trifluoromethanesulfonamide]
pest or weed control at 125 g/ha ([1]; visual injury approx. 10 days): 40%
pest or weed control at 500 g/ha [1]: 80%
plant injury at 125 g/ha ([2]; visual injury approx. 10 days): 60%
plant injury at 500 g/ha [2]: 70%
pest or weed control at 125 g/ha ([3]; visual injury approx. 10 days): 90%
pest or weed control at 500 g/ha [3]: 90%

Cc1c(NS(=O)(=O)C(F)(F)F)cc(C(=O)N(C)C)c(C)c1F [Compound 128, 3-Fluoro-N,N,2,4-tetramethyl-5-[[(trifluoromethyl)sulfonyl]amino]benzamide]
pest or weed control at 125 g/ha ([1]; visual injury approx. 10 days): 10%
pest or weed control at 500 g/ha [1]: 30%
plant injury at 125 g/ha ([2]; visual injury approx. 10 days): 30%
plant injury at 500 g/ha [2]: 60%
pest or weed control at 125 g/ha ([3]; visual injury approx. 10 days): 50%
pest or weed control at 500 g/ha [3]: 90%

Cc1c(NS(=O)(=O)C(F)(F)F)cc(C(=O)N2CCOCC2)c(C)c1F [Compound 190, 1,1,1-Trifluoro-N-[3-fluoro-2,4-dimethyl-5-(4-morpholinylcarbonyl)phenyl]methanesulfonamide]
pest or weed control at 125 g/ha [1]: 10%
pest or weed control at 500 g/ha [1]: 40%
plant injury at 125 g/ha [2]: 40%
plant injury at 500 g/ha [2]: 70%
pest or weed control at 125 g/ha [3]: 80%
pest or weed control at 500 g/ha [3]: 90%

Cc1cc(C)c(N(COC(=O)C(C)(C)C)S(=O)(=O)C(F)(F)F)cc1C1=NOC2(CCCCC2)C1 [Compound 159, [[2,4-Dimethyl-5-(1-oxa-2-azaspiro[4.5]dec-2-en-3-yl)phenyl][(trifluoromethyl)sulfonyl]amino]methyl 2,2-dimethylpropanoate]
pest or weed control at 125 g/ha [1]: 0%
pest or weed control at 500 g/ha [1]: 20%
plant injury at 125 g/ha [2]: 30%
plant injury at 500 g/ha [2]: 50%
pest or weed control at 125 g/ha [3]: 30%
pest or weed control at 500 g/ha [3]: 80%

Cc1cc(C)c(N(COC(=O)C(C)(C)C)S(=O)(=O)C(F)(F)F)cc1C1=NOC2(CCCC2)C1 [Compound 140, [[2,4-Dimethyl-5-(1-oxa-2-azaspiro[4.4]non-2-en-3-yl)phenyl][(trifluoromethyl)sulfonyl]amino]methyl 2,2-dimethylpropanoate]
pest or weed control at 125 g/ha ([1]; visual injury approx. 10 days): 30%
pest or weed control at 500 g/ha [1]: 30%
plant injury at 125 g/ha [2]: 0%
plant injury at 500 g/ha [2]: 60%
pest or weed control at 125 g/ha ([3]; visual injury approx. 10 days): 70%
pest or weed control at 500 g/ha [3]: 90%
